Assay results: PubChem BioAssay (NCI)
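How tested: cells in 96-well plates exposed to compound for 48 hours at five concentrations. TGI: concentration producing complete growth inhibition.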

Tests used:
Assay in all cases: inhibition of tumour cell growth, NCI panel, 48 h
786-0 renal = test system: 786-0 renal
A498 renal = test system: A498 renal
A549 NSCLC = test system: A549 NSCLC
ACHN renal = test system: ACHN renal
BT-549 breast = test system: BT-549 breast
CAKI-1 renal = test system: CAKI-1 renal
CCRF-CEM leukemia = test system: CCRF-CEM leukemia
COLO 205 colon = test system: COLO 205 colon
DMS 114 small cell lung = test system: DMS 114 small cell lung
DMS 273 small cell lung = test system: DMS 273 small cell lung
DU-145 prostate = test system: DU-145 prostate
EKVX NSCLC = test system: EKVX NSCLC
HCC-2998 colon = test system: HCC-2998 colon
HCT-116 colon = test system: HCT-116 colon
HCT-15 colon = test system: HCT-15 colon
HL-60(TB) leukemia = test system: HL-60(TB) leukemia
HOP-62 NSCLC = test system: HOP-62 NSCLC
HOP-92 NSCLC = test system: HOP-92 NSCLC
HS 578T breast = test system: HS 578T breast
HT29 colon = test system: HT29 colon
IGROV1 ovarian = test system: IGROV1 ovarian
K-562 leukemia = test system: K-562 leukemia
KM12 colon = test system: KM12 colon
LOX IMVI melanoma = test system: LOX IMVI melanoma
LXFL 529 NSCLC = test system: LXFL 529 NSCLC
M14 melanoma = test system: M14 melanoma
M19-MEL melanoma = test system: M19-MEL melanoma
MALME-3M melanoma = test system: MALME-3M melanoma
MDA-MB-231 breast = test system: MDA-MB-231 breast
MDA-MB-435 = test system: MDA-MB-435
MDA-N = test system: MDA-N
MOLT-4 leukemia = test system: MOLT-4 leukemia
NCI-H226 lung = test system: NCI-H226 lung
NCI-H23 lung = test system: NCI-H23 lung
NCI-H460 lung = test system: NCI-H460 lung
NCI-H522 lung = test system: NCI-H522 lung
NCI/ADR-RES ovarian = test system: NCI/ADR-RES ovarian
OVCAR-3 ovarian = test system: OVCAR-3 ovarian
OVCAR-4 ovarian = test system: OVCAR-4 ovarian
OVCAR-5 ovarian = test system: OVCAR-5 ovarian
OVCAR-8 ovarian = test system: OVCAR-8 ovarian
PC-3 prostate = test system: PC-3 prostate
RPMI-8226 leukemia = test system: RPMI-8226 leukemia
RXF 393 renal = test system: RXF 393 renal
RXF-631 renal = test system: RXF-631 renal
SF-268 CNS = test system: SF-268 CNS
SF-295 CNS = test system: SF-295 CNS
SF-539 CNS = test system: SF-539 CNS
SK-MEL-2 melanoma = test system: SK-MEL-2 melanoma
SK-MEL-28 melanoma = test system: SK-MEL-28 melanoma
SK-MEL-5 melanoma = test system: SK-MEL-5 melanoma
SK-OV-3 ovarian = test system: SK-OV-3 ovarian
SN12C renal = test system: SN12C renal
SNB-19 CNS = test system: SNB-19 CNS
SNB-75 CNS = test system: SNB-75 CNS
SNB-78 CNS = test system: SNB-78 CNS
SR leukemia = test system: SR leukemia
SW-620 colon = test system: SW-620 colon
T-47D breast = test system: T-47D breast
TK-10 renal = test system: TK-10 renal
U251 CNS = test system: U251 CNS
UACC-257 melanoma = test system: UACC-257 melanoma
UACC-62 melanoma = test system: UACC-62 melanoma
UO-31 renal = test system: UO-31 renal
XF 498 CNS = test system: XF 498 CNS
DLD-1 colon = test system: DLD-1 colon
HOP-18 NSCLC = test system: HOP-18 NSCLC
KM20L2 colon = test system: KM20L2 colon

C=C1C(=O)C=C2C=C3C(=O)C(C)(C)C[C@]3(O)C12C (stereo partly specified)
TGI (786-0 renal): 3.41 µM
TGI (A498 renal): 23.2 µM
TGI (A549 NSCLC): 40.4 µM
TGI (ACHN renal): 4.53 µM
TGI (BT-549 breast): 3.05 µM
TGI (CAKI-1 renal): 3.99 µM
TGI (CCRF-CEM leukemia): 1370 nM
TGI (COLO 205 colon): 3.53 µM
TGI (DMS 114 small cell lung): 3.61 µM
TGI (DMS 273 small cell lung): 14 µM
TGI (DU-145 prostate): 33.9 µM
TGI (EKVX NSCLC): 51.2 µM
TGI (HCC-2998 colon): 34.4 µM
TGI (HCT-116 colon): 9 µM
TGI (HCT-15 colon): 11.7 µM
TGI (HL-60(TB) leukemia): 2540 nM
TGI (HOP-62 NSCLC): 53.3 µM
TGI (HOP-92 NSCLC): 3.24 µM
TGI (HS 578T breast): 43.8 µM
TGI (HT29 colon): 11.1 µM
TGI (IGROV1 ovarian): 36.5 µM
TGI (K-562 leukemia): 3.98 µM
TGI (KM12 colon): 32.1 µM
TGI (LOX IMVI melanoma): 11 µM
TGI (LXFL 529 NSCLC): 2640 nM
TGI (M14 melanoma): 3.04 µM
TGI (M19-MEL melanoma): 11.3 µM
TGI (MALME-3M melanoma): 3.65 µM
TGI (MDA-MB-231 breast): 7.59 µM
TGI (MDA-MB-435): 32.6 µM
TGI (MDA-N): 13.5 µM
TGI (MOLT-4 leukemia): 2280 nM
TGI (NCI-H226 lung): 45.6 µM
TGI (NCI-H23 lung): 12.9 µM
TGI (NCI-H460 lung): 38.2 µM
TGI (NCI-H522 lung): 3.38 µM
TGI (NCI/ADR-RES ovarian): > 100 µM
TGI (OVCAR-3 ovarian): 4.49 µM
TGI (OVCAR-4 ovarian): 12.7 µM
TGI (OVCAR-5 ovarian): 21.4 µM
TGI (OVCAR-8 ovarian): 29.3 µM
TGI (PC-3 prostate): 10.2 µM
TGI (RPMI-8226 leukemia): 3.2 µM
TGI (RXF 393 renal): 3.33 µM
TGI (RXF-631 renal): 30.9 µM
TGI (SF-268 CNS): 28.2 µM
TGI (SF-295 CNS): 45.7 µM
TGI (SF-539 CNS): > 57.5 µM
TGI (SK-MEL-2 melanoma): 33.2 µM
TGI (SK-MEL-28 melanoma): 6.76 µM
TGI (SK-MEL-5 melanoma): 19 µM
TGI (SK-OV-3 ovarian): 38.1 µM
TGI (SN12C renal): 23.9 µM
TGI (SNB-19 CNS): 44.5 µM
TGI (SNB-75 CNS): 31.4 µM
TGI (SNB-78 CNS): 21 µM
TGI (SR leukemia): 2280 nM
TGI (SW-620 colon): 3.23 µM
TGI (T-47D breast): 5.98 µM
TGI (TK-10 renal): 3.42 µM
TGI (U251 CNS): 34 µM
TGI (UACC-257 melanoma): 9.13 µM
TGI (UACC-62 melanoma): 17.8 µM
TGI (UO-31 renal): 14 µM
TGI (XF 498 CNS): 3.56 µM

COCCN1C2=CCCCC2=Nc2c(N)nc(N)nc21
TGI (786-0 renal): > 100 µM
TGI (A498 renal): > 100 µM
TGI (A549 NSCLC): > 100 µM
TGI (ACHN renal): > 100 µM
TGI (CAKI-1 renal): > 100 µM
TGI (CCRF-CEM leukemia): > 100000 nM
TGI (COLO 205 colon): > 100 µM
TGI (DLD-1 colon): > 100 µM
TGI (DMS 114 small cell lung): > 100 µM
TGI (DMS 273 small cell lung): > 100 µM
TGI (HCC-2998 colon): > 100 µM
TGI (HCT-116 colon): > 100 µM
TGI (HCT-15 colon): > 100 µM
TGI (HL-60(TB) leukemia): > 100000 nM
TGI (HOP-18 NSCLC): > 100 µM
TGI (HOP-62 NSCLC): > 100 µM
TGI (HOP-92 NSCLC): > 100 µM
TGI (HT29 colon): > 100 µM
TGI (IGROV1 ovarian): > 100 µM
TGI (K-562 leukemia): > 100 µM
TGI (KM12 colon): > 100 µM
TGI (KM20L2 colon): > 100 µM
TGI (LOX IMVI melanoma): > 100 µM
TGI (LXFL 529 NSCLC): > 100000 nM
TGI (M14 melanoma): > 100 µM
TGI (M19-MEL melanoma): > 100 µM
TGI (MALME-3M melanoma): > 100 µM
TGI (MOLT-4 leukemia): > 100000 nM
TGI (NCI-H226 lung): > 100 µM
TGI (NCI-H23 lung): > 100 µM
TGI (NCI-H460 lung): > 100 µM
TGI (NCI-H522 lung): > 100 µM
TGI (OVCAR-3 ovarian): 77.7 µM
TGI (OVCAR-5 ovarian): > 100 µM
TGI (OVCAR-8 ovarian): > 100 µM
TGI (RPMI-8226 leukemia): > 100 µM
TGI (RXF 393 renal): > 100 µM
TGI (RXF-631 renal): > 100 µM
TGI (SF-268 CNS): > 100 µM
TGI (SF-295 CNS): > 100 µM
TGI (SF-539 CNS): > 100 µM
TGI (SK-MEL-2 melanoma): > 100 µM
TGI (SK-MEL-28 melanoma): > 100 µM
TGI (SK-MEL-5 melanoma): > 100 µM
TGI (SK-OV-3 ovarian): > 100 µM
TGI (SN12C renal): > 100 µM
TGI (SNB-19 CNS): > 100 µM
TGI (SNB-75 CNS): > 100 µM
TGI (SNB-78 CNS): > 100 µM
TGI (SR leukemia): > 100000 nM
TGI (TK-10 renal): > 100 µM
TGI (U251 CNS): > 100 µM
TGI (UACC-257 melanoma): > 100 µM
TGI (UACC-62 melanoma): > 100 µM
TGI (UO-31 renal): > 100 µM
TGI (XF 498 CNS): > 100 µM
